# What was measured:
# XP144 TGs = test: Tumorgraft growth in different hosts, mixed-model analysis, XP144; assay type: in vivo, mice
# Experimental: (§1) Tumor samples were collected from patients under IRB-approved protocol as previously described. 6-to-8-week-old NOD/SCID mice originally obtained from the UT Southwestern Breeding Core were implanted subcutaneously with patient-derived TGs. Calipers were used to measure tumor dimensions. Volume was calculated by multiplying width, length, and height, thereby minimizing the potential bias of disproportionately weighing one particular dimension (at the cost of overestimating tumor volumes). […] Tumors were measured weekly. As indicated, vehicle-treated tumors and rapamycin-sensitive tumors were harvested around 28 days. […] In accordance with UT Southwestern Institutional Animal Care and Use Committee policies, animals were euthanized once tumor diameters were larger than 2 cm.
# (§2) Bar charts and series plots are presented as the mean±standard error of the mean (SEM) from more than three independent experiments. Unless otherwise indicated, the statistical significance was determined by t-test using GraphPad Prism. For each XP line, ANOVA with post-hoc t-tests were used to test for differential (phospho)protein levels between the three arms in the RPPA analysis (vehicle-treated, rapamycin-sensitive, and rapamycin-resistant) with FDR-adjusted P-values. For the mixed model analysis, data were summarized as mean tumor growth per day with 95% confidence intervals, as well as by fold change between groups. A positive fold change indicates increased tumor growth rates in the first group compared to the second. Estimates were obtained from a three-way factorial mixed model analysis for treatment group, mouse type, and day of measurement. Baseline volume was also included as a term in the model to control for differences in starting volumes. An autoregressive (AR-1) covariance structure was used to account for the correlation among repeated measurements for each mouse. ANOVA and mixed model analyses were completed using SAS 9.4. A P-value <0.05 was considered significant.
# (§3) XP144, XP164 and XP490 were then implanted into NOD/SCID^mTOR-ST mice.
# (§4) The mTOR-ST mutation had the least effect on XP490. […] In Table 4, data are summarized with mean tumor growth rates per day (95% confidence intervals) with fold change between the two groups. A positive fold change indicates increased tumor growth rates in the first group. mTOR-WT, wild type mice; mTORST, heterozygous mTOR-ST mice; mTORST/ST, homozygous mTOR-ST mice. Rapa, rapamycin-treatment; Veh, vehicle-treatment
# XP164 TGs = test: Tumorgraft growth in different hosts, mixed-model analysis, XP164; assay type: in vivo, mice
# Experimental: as §1, §2, §3, §4
# [1] = following temsirolimus administration in patients; cited from earlier work
# XP490 TGs = test: Tumorgraft growth in different hosts, mixed-model analysis, XP490; assay type: in vivo, mice
# Experimental: as §1, with “weekly.” for “weekly. As indicated, vehicle-treated tumors and rapamycin-sensitive tumors were harvested around 28 days.”
# as §2, with “For each XP line, ANOVA with post-hoc t-tests were used to test for differential (phospho)protein levels between the three arms in the RPPA analysis (vehicle-treated, rapamycin-sensitive, and rapamycin-resistant) with FDR-adjusted P-values.” left out
# as §3
# A positive fold change indicates increased tumor growth rates in the first group. mTOR-WT, wild type mice; mTORST, heterozygous mTOR-ST mice; mTORST/ST, homozygous mTOR-ST mice.
compound,measurement,setting,value
CO[C@H]1C[C@@H]2CC[C@@H](C)[C@@](O)(O2)C(=O)C(=O)N2CCCC[C@H]2C(=O)O[C@H]([C@H](C)C[C@@H]2CC[C@@H](O)[C@H](OC)C2)CC(=O)[C@H](C)/C=C(\C)[C@@H](O)[C@@H](OC)C(=O)[C@H](C)C[C@H](C)/C=C/C=C/C=C/1C [rapamycin],effect on tumor growth,"XP144 TGs; XP144, NOD/SCID^mTOR-ST mice",no significant effect
same,Mean tumor growth per day (95% CI),"XP144 TGs; XP144, mTOR^ST (heterozygous) mice","54.6 (36.8, 72.4) vs."
same,Mean tumor growth per day (95% CI),"XP144 TGs; XP144, mTOR^WT mice, rapamycin 0.5 mg/kg IP every 48 hours","20.4 (10.5, 30.3) vs."
same,reduction of tumor growth,"XP144 TGs; XP144, wild-type mice, vs vehicle",1.5 fold
same,effect on tumor growth,"XP164 TGs; XP164, NOD/SCID^mTOR-ST mice",no significant effect
same,Mean tumor growth per day (95% CI),"XP164 TGs; XP164, mTOR^ST (heterozygous) mice","67.6 (57.2, 78.0) vs."
same,Mean tumor growth per day (95% CI),"XP164 TGs; XP164, mTOR^ST/ST (homozygous) mice","69.5 (58.5, 80.6) vs."
same,Mean tumor growth per day (95% CI),"XP164 TGs; XP164, mTOR^WT mice","18.3 (12.6, 24.0) vs."
same,delay of tumor growth,"XP164 TGs; XP164, wild-type mice, vs vehicle",3.7 fold
same,share of the circulating drug,[1],70%
same,inhibition of tumor growth,"XP490 TGs; XP490, mTOR-ST homozygous mice",2 fold
same,Mean tumor growth per day (95% CI),"XP490 TGs; XP490, mTOR^ST (heterozygous) mice","15.0 (11.7, 18.3) vs."
same,Mean tumor growth per day (95% CI),"XP490 TGs; XP490, mTOR^WT mice","5.1 (1.1, 9.1) vs."
same,inhibition of tumor growth,"XP490 TGs; XP490, mice with the resistance mutation (heterozygous mTOR-ST)",6 fold
same,reduction of tumor growth,"XP490 TGs; XP490, wild-type mice, vs vehicle",11 fold
same,reduction of tumor growth inhibition in the resistant host,"XP490 TGs; third TG line, resistant host vs wild type",≤ 5 fold

# Source: US20250325528A1, “[…] ROLE OF mTORC1 INHIBITION OF NON-TUMOR CELLS” (THE BOARD OF REGENTS OF THE UNIVERSITY OF TEXAS SYSTEM, priority 2024, published 2025)
